System: NOS1
Experiment: Percentage of NO neurons in treated cultures by flow cytometry for NOS1
Assay type: cell-based, human
Conditions: flow cytometry for NOS1, compared to no treatment
Procedure: NO neurons quantified using flow cytometry for NOS1.
Option 1 (for 3-D Culture): • 30. On day 15, ENC spheroids are gathered in the center of the wells using a swirling motion and neural crest medium is removed using a P1000 micropipette in slow circular motion, avoiding the free-floating spheroids. • 31. Spheroids are fed with the same volume of ENC medium containing PP121 (1-5 μM), GDNF (10 ng/ml), ascorbic acid (100 μM), N2 supplement (10 μl/ml), B27 supplement (20 μl/ml), glutagro (10 μl/ml), and MEM NEAAs (10 μl/ml) in neurobasal medium. • 32. Cells are fed with ENC every other day until day 30-40, after which, feeding frequency can be reduced to once or twice a week but with a higher volume of medium.
Option 2 (for 2-D Culture): • 30. On day 15, ENC spheroids are gathered in the center of the wells using a swirling motion and neural crest medium is removed using a P1000 micropipette in slow circular motion, avoiding the free-floating spheroids. • 31. After washing the spheroids with PBS, accutase is added and plates are incubated for 30 minutes at 37° C. to dissociate the spheroids. • 32. Then, remaining spheroids are broken by pipetting ENC medium. • 33. ENC contains PP121 (1-5 μM), GDNF (10 ng/ml), ascorbic acid (100 μM), N2 supplement (10 μl/ml), B27 supplement (20 μl/ml), glutagro (10 μl/ml), and MEM NEAAs (10 μl/ml) in neurobasal medium. • 34. […]

Molecule	percentage of NO neurons (NOS1 induction)
PDGF	reduced the percentage of NO neurons
Nc1ncnc2c1c(-c1cnc3[nH]ccc3c1)nn2C1CCCC1 [PP121]	enhances NOS1 induction efficiency

— US20230126711A1, “ENTERIC NITRERGIC NEURONS AND METHODS OF USING THE SAME” (The Regents of the University of California, priority 2020, published 2023)
